# Values joined by “and” are separate entries in the source; they are usually repeats but may differ in a detail not shown here. Identical values can stand only once. Results filed as inconclusive are left out. Active and inactive are the calls of the source.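 Rule for the calls: active = fitted half-maximal concentration of signal decrease at or below twice the sample's top tested concentration; inconclusive = flat curve between -70 and -30 percent, or poor fit; inactive = flat within 30 percent, signal rise, or potency above limit.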
# Target: T. gondii ME49Luc in IFN-y HeLa, luciferase, 72 h
# Assay: T. gondii growth inhibition with IFN-gamma, dose response, cell-based, ME49Luc, HeLa, luciferase, 72 h (AID 1259418)
row,SMILES,AC50
1,COc1ccc(OC)c(S(=O)(=O)N2CCc3c([nH]c4ccccc34)C2c2cc(F)ccc2F)c1 (configuration not stated),> 39 µM (inactive)
2,Cn1cc(-c2cnc(Nc3ccccc3)nc2)cc1C(=O)Nc1cccc(O)c1,23.6 µM
3,O=C(Nc1cccc(F)c1)N1CCCCN2[C@H](CO)[C@H](c3ccc(C#Cc4cccnc4)cc3)[C@@H]2C1,2.07 µM and 1.05 µM
4,O=C(CC1N=C2c3ccccc3N=C(SCc3ccc(Cl)cc3)N2C1=O)NCCc1ccccc1 (configuration not stated),20.4 µM
5,Cc1ccn(CCNc2nccc(-c3c(C)nn(C)c3C)n2)n1,18.8 µM
6,Cc1ccc(NC(=O)c2cc(-c3cnc(-c4ccccc4)nc3)cn2CC2CC2)cn1,10.9 µM
7,COc1ccccc1NC(=O)N1CCCCN2[C@H](CO)[C@@H](c3ccc(-c4cccc(C#N)c4)cc3)[C@@H]2C1,21.5 µM
8,Cc1ccc(CNC2=NCCNC23CCN(S(=O)(=O)c2ccc(C)c(C)c2)CC3)cc1,7.83 µM
9,COc1cccc(N(Cc2nc(-c3cccc(C)c3)oc2C)S(=O)(=O)c2ccc(C)cc2)c1,4.46 µM
10,CCOc1ccc(N(Cc2nc(-c3ccc(C)cc3)oc2C)S(=O)(=O)c2cccs2)cc1,5.31 µM
11,COc1ccc(-c2nc(NC(C)C)c3ccccc3n2)cc1,> 39 µM (inactive)
12,O=C(Cc1ccncc1)N1CCCCN2[C@@H](CO)[C@@H](c3ccc(C#Cc4ccccc4F)cc3)[C@@H]2C1,20.9 µM and 12.3 µM
13,CC(C)(Cc1ccc2ccccc2c1)NC[C@@H](O)COc1cccc(Cl)c1C#N,13.3 µM
14,O=C(c1cnccn1)N1CC(=O)N2[C@H](C1)[C@H](c1ccc(/C=C/c3ccccc3)cc1)[C@@H]2CO,11.9 µM and 23.5 µM
15,O=S(=O)(c1ccccc1)N(CC(F)(F)F)c1ccc(C(O)(C(F)(F)F)C(F)(F)F)cc1,19 µM
16,Cc1csc(-c2cc(S(=O)(=O)NCCCN3CCC(C)CC3)c(C)s2)n1,> 39 µM (inactive)
17,CN(C[C@H]1N[C@@H](CO)[C@H]1c1ccc(-c2ccc(F)cc2)cc1)C(=O)C1CCC1,16.2 µM
18,COc1cc(NC(=O)Nc2ccc(-c3nc(-c4ccc(C)cc4C)co3)cc2)cc(OC)c1,25.7 µM
19,c1ccc2c(Oc3nc(Nc4ccc(N5CCOCC5)cc4)c4ncn(C5CCCCC5)c4n3)cccc2c1,16.4 µM
20,CCOc1ccc(-c2nc(CN(c3ccccc3OC)S(=O)(=O)c3cccs3)c(C)o2)cc1,8.23 µM
21,CC(C)n1cnc2c(NCC3CC3)nc(C3CCN(C(=O)c4ccccc4)CC3)cc21,21.7 µM
22,O=C(c1ccc(F)cc1)N1CC(=O)N2[C@H](CO)[C@H](c3ccc(C#CCC4CCCC4)cc3)[C@@H]2C1,14.4 µM and 12 µM
23,Cc1nc(CCNC(=O)C2CCN(C(=O)c3cccc(Cl)c3)CC2)cs1,31.5 µM

row,SMILES,AC50
1,O=C(Cc1cccnc1)N1CC(=O)N2[C@H](CO)[C@@H](c3ccc(C4=CCCCC4)cc3)[C@H]2C1,25.3 µM
2,CCCNC(=O)N1[C@H](C#N)[C@H](c2ccc(-c3ccccc3F)cc2)[C@@H]1CO,3.6 µM
3,COc1ccc(-c2ccc3c(c2)[C@@H]2[C@@H](CCN2C(=O)c2cccc(F)c2)[C@H](CO)N3)cc1,26.9 µM
4,Cc1ccc(C)c(S(=O)(=O)N2CCC3(CC2)NCCN=C3NCc2ccccc2F)c1,28.5 µM
5,CCc1cc(C2CCCN2C(=O)c2cc(C(F)(F)F)nn2C)on1 (configuration not stated),> 39 µM (inactive)
6,CC(C)N1c2ccc(F)cc2[C@@H]2CN(C(=O)c3ccco3)CC[C@H]21,12.8 µM
7,Nc1ncnc2c1ncn2[C@@H]1O[C@H](C[C@@H](N)CC[C@H](N)C(=O)O)[C@@H](O)[C@H]1O,0.907 µM
8,CC(C)Cc1ccc(S(=O)(=O)N2CCC3(CC2)NCCN=C3NCc2ccccc2)cc1,14.4 µM
9,COc1cccc(S(=O)(=O)N2CCCCN3[C@H](C2)[C@@H](c2ccc(C#CCC(C)C)cc2)[C@@H]3CO)c1,15.3 µM
10,Cc1ccc(CNC2=NCCNC23CCN(S(=O)(=O)c2cc(C)cc(C)c2)CC3)cc1,23.4 µM
11,COc1cc2c(cc1O)CC[C@@H]1[C@@H]2CC[C@]2(C)[C@@H](O)CC[C@@H]12,1.99 µM and 4.21 µM
12,CCC(C(=O)N1CCC2(CC1)Nc1ccc(Cl)cc1-n1cccc12)c1ccccc1 (configuration not stated),> 39 µM (inactive)
13,O=C(CCn1c2c(c3ccccc31)CCCC2)N1CCC(c2ccncc2)CC1,15.3 µM
14,O=C(Cc1ccncc1)N1CCCCN2[C@H](CO)[C@@H](c3ccc(C#Cc4ccccc4F)cc3)[C@H]2C1,18.5 µM
15,Cc1ccccc1CN1C[C@@H]2C[C@H](C(=O)Nc3ccccc3)[C@@H](C1)O2,10.5 µM
16,Cc1ccc(-c2nc(CN3CCN(C(=O)Nc4ccc(C)c(F)c4)CC3)c(C)o2)cc1,8.58 µM
17,COc1ccc(-c2nc(Nc3ccc(CN4CCCCC4)cc3)c3ccccc3n2)cc1,12 µM
18,CCCc1ccc(S(=O)(=O)N2CCC[C@@H]2C(=O)NCCc2csc(-c3ccccc3)n2)cc1,3.78 µM and 16 µM
19,COc1cccc(-c2ccc(C3[C@@H]4CN(S(=O)(=O)Cc5ccccc5)C[C@H]3N4)cc2)c1 (some centres not stated),12.3 µM and 15.7 µM
20,Cc1ccccc1-c1ccc([C@H]2[C@@H](CO)N3CCCCN(S(=O)(=O)Cc4ccccc4)C[C@H]23)cc1,17.6 µM and 13.3 µM
21,O=S1(=O)c2ccccc2O[C@H]2CCN(Cc3ccc(Cl)cc3)CC[C@H]2N1CC1CC1,32 µM
22,COc1cccc(-c2nc3c(s2)CN(S(=O)(=O)c2cccc(F)c2)CC3)c1,11.3 µM
23,O=S(=O)(c1ccc2c(c1)CCCC2)N1CCC2(CC1)NCCN=C2NCc1ccc(Cl)cc1,9.16 µM

row,SMILES,AC50
1,COc1cccc(N(Cc2nc(-c3ccc(C)cc3)oc2C)S(=O)(=O)c2ccc(C)cc2)c1,7.83 µM
2,CCc1ccc(C(=O)Nc2ccc3c(c2)CCC(=O)N3C)cc1,7.06 µM
3,COc1ccc(S(=O)(=O)N2CCCCN3[C@H](C2)[C@@H](c2ccc(C#CCC(C)C)cc2)[C@@H]3CO)cc1,12.3 µM
4,COc1cc(NC(=O)Nc2ccc(-c3nc(-c4cc(C)ccc4C)co3)cc2)cc(OC)c1OC,14.5 µM
5,COc1ccc(-c2nc(C)c(-c3ccc(SCc4cccc(C(F)(F)F)c4)nn3)s2)cc1,> 39 µM (inactive)
6,O=C(O)CCc1nc2sc3c(c2c(=O)[nH]1)CCCC3,> 20 µM (inactive)
7,COc1ccc(-c2nc(NCCCN3CCOCC3)c3ccccc3n2)cc1,16.6 µM
8,O=S(=O)(c1ccc2c(c1)CCCC2)N1CCC2(CC1)NCCN=C2NCc1ccccc1,12.9 µM
9,Cc1cccc(C(=O)Nc2c(C(=O)NCc3cccnc3)[nH]c3ccccc23)c1,> 39 µM (inactive)
10,CN1c2ccc(C3=CCCCC3)cc2[C@@H]2[C@@H](CCN2C(=O)c2ccc3c(c2)OCO3)[C@@H]1CO,19.3 µM
11,Cc1ccccc1-c1ccc([C@@H]2[C@@H](CO)N3CCCCN(S(=O)(=O)Cc4ccccc4)C[C@H]23)cc1,19.8 µM
12,CCCCNC(=O)CCC1N=C2c3ccccc3N=C(SCc3ccc(Cl)cc3)N2C1=O (configuration not stated),17 µM
13,CS(=O)(=O)N1CC(=O)N2[C@H](C1)[C@@H](c1ccc(C#Cc3ccc(F)cc3)cc1)[C@@H]2CO,22.8 µM
14,O=C(CC1N=C2c3ccccc3N=C(SCc3ccccc3Cl)N2C1=O)NCc1cccs1 (configuration not stated),21.5 µM
15,CC(C)CC#Cc1ccc([C@H]2[C@@H](CO)N3C(=O)CN(C(=O)c4cccc(F)c4)C[C@H]23)cc1,15.5 µM
16,Cc1ccc(S(=O)(=O)N2CCC3(CC2)NCCN=C3NCc2ccc(F)c(Cl)c2)c(C)c1,6.21 µM
17,COc1ccccc1NS(=O)(=O)c1cc2c3c(c1)CCC(=O)N3CCC2,25.4 µM
18,Cc1ccc(-c2coc(-c3ccc(NS(=O)(=O)c4ccc(CC(C)C)cc4)cc3)n2)c(C)c1,> 39 µM (inactive)
19,COc1ccc(-c2nc(NCCN3CCN(C)CC3)c3ccccc3n2)cc1,3.52 µM and 27.4 µM
20,O=C(CCC1N=C2c3ccccc3N=C(SCc3ccc(F)cc3)N2C1=O)NCc1ccccc1 (configuration not stated),31.8 µM
21,O=C(c1cccc2[nH]ccc12)N1CCCC1c1nc(-c2cccc(Cl)c2)no1 (configuration not stated),23.3 µM
22,COc1ccc(C#Cc2ccc([C@H]3[C@@H](CO)N4C(=O)CN(C(=O)NC(C)C)C[C@@H]34)cc2)cc1,22.3 µM
23,O=C(C[C@@H]1CC[C@@H]2[C@H](COC[C@@H](O)CN2S(=O)(=O)c2ccccc2)O1)NCC1CCCCC1,20.8 µM

row,SMILES,AC50
1,CCCCc1ccc(Nc2ncnc3c2cnn3-c2ccc(C)cc2C)cc1,8.05 µM
2,CCOc1ccc(N(Cc2nc(-c3ccccc3)oc2C)S(=O)(=O)c2ccccc2)cc1,7.95 µM
3,CC(C)n1ncc(NC(=O)Cn2ccc(-c3ccc(C(F)(F)F)cc3)n2)n1,24.3 µM
4,CCc1ccc(S(=O)(=O)N2CCC3(CC2)NCCN=C3NCc2ccccc2)cc1,21.8 µM
5,CCOc1ccc(-c2nc(CN3CCN(C(=O)Nc4ccc(F)cc4)CC3)c(C)o2)cc1,12.8 µM
6,CS(=O)(=O)N1CCc2sc(C(=O)Nc3ccc(Cl)cc3)cc21,3.36 µM
7,CCc1ccc(N2CCC(C(=O)NCCc3c[nH]c4ccc(C)cc34)C2=O)cc1 (configuration not stated),22.9 µM
8,C(=C\c1ccc(C2[C@H]3CNC[C@@H]2N3CC2CCOCC2)cc1)/c1ccccc1 (some centres not stated),26.3 µM
9,COc1cccc(NC(=O)N2CC(=O)N3[C@@H](CO)[C@@H](c4ccc(C#CCC5CCCC5)cc4)[C@@H]3C2)c1,22.5 µM
10,CC(C)CNc1nc2c(cc1C(=O)NC(C)C)CCN(c1ccncn1)CC2,26.5 µM
11,COc1ccccc1C#Cc1ccc([C@H]2[C@@H](CO)N3CCCCN(C(=O)C4CCC4)C[C@@H]23)cc1,18.8 µM
12,Cc1ccc(-c2nc(CN3CCN(C(=O)Nc4ccc(C)c(C)c4)CC3)c(C)o2)cc1,23.2 µM
13,N#Cc1ccc(-c2ccc([C@@H]3[C@@H]4CN(S(=O)(=O)Cc5ccccc5)C[C@H]3N4)cc2)cc1,6.55 µM and 15.5 µM
14,O=C(NC1CCCCC1)N1C[C@@H]2N[C@H](C1)C2c1ccc(-c2ccc(F)cc2)cc1 (some centres not stated),22.7 µM
15,O=C(C[C@H]1CC[C@H]2[C@@H](COC[C@H](O)CN2S(=O)(=O)c2ccccc2)O1)NCC1CCCCC1,20.8 µM
16,CO[C@@H]1CCN(S(=O)(=O)N(C)C)C[C@@H]1Cc1cccc(C)c1,23.5 µM
17,COc1cccc(CN2CCCCN3[C@@H](CO)[C@@H](c4ccc(-c5ccccc5OC)cc4)[C@@H]3C2)c1,16.4 µM and 13.4 µM
18,Cc1ccc(Cn2c(=O)c3nn(C)cc3n3c(=O)n(Cc4nc(-c5ccccc5)oc4C)nc23)cc1,13.1 µM
19,COc1ccc(CNC(=O)CCC2N=C3c4ccccc4N=C(SCc4cccc(F)c4)N3C2=O)cc1 (configuration not stated),20.4 µM
20,COc1cccc(-c2nc(C)c(-c3ccc(SCc4ccc(Cl)cc4)nn3)s2)c1,8.76 µM
21,O=C1CNC[C@@H]2[C@@H](c3ccc(C#Cc4cccnc4)cc3)[C@@H](CO)N12,14.1 µM and 18.2 µM
22,CCCCNC(=O)CCC1N=C2c3ccccc3N=C(SCc3cccc(Cl)c3)N2C1=O (configuration not stated),14.6 µM
23,Cc1nc2c(cnn2-c2ccccc2)c(=O)n1-c1cccc2ccccc12,1.32 µM
